Consider 10 molecules from article PMC10954593, “Gastrodinol derivatives and prenylated flavones from the flower branch of Gastrodia elata” (Natural Products and Bioprospecting, 2024).

As a reminder, the inhibition is how much of the control response was suppressed. For orientation: IC50 means the concentration that gives 50% inhibition.

The target of assay [1] is AChE (Homo sapiens, UniProt P22303). In words: biochemical. Format: biochemical. The conditions noted are these: for acetylcholinesterase inhibitory activity (in words): abstract statement; for inhibition at 50 µM: concentration 50 μM, read-out: AChE inhibition rate, primary screening; for IC50: positive control tacrine, read-out: IC50 of AChE-inhibiting activity. The procedure: The reaction is carried out in a 96-well plate with plates plated by 200 μL/system with 3 replicates per sample; Detect the absorbance value of 405 nm every 30 s within 1 h after the addition of the color developer and substrate.
Chain of AChE (P22303 32-614): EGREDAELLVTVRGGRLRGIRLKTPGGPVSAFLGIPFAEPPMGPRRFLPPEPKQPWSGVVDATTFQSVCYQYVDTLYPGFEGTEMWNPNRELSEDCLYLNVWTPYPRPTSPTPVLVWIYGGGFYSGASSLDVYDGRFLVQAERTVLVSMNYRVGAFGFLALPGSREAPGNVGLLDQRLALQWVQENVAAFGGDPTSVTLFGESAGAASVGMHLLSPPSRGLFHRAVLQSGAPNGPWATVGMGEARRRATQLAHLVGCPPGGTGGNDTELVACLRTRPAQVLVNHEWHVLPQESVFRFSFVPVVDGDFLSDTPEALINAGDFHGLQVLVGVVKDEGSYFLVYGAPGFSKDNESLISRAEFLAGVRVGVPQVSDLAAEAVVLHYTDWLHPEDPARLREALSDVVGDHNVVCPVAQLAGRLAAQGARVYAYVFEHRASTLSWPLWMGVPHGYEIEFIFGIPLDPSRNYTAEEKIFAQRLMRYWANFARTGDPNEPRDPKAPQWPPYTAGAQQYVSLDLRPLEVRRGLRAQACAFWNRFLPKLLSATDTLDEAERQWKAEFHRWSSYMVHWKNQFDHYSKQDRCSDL

For assay [2], the system named is MRSA. Put plainly: anti-MRSA activity (96-well culture plate, OD at 625 nm after 24 h). In kind it is cell-based, methicillin-resistant Staphylococcus aureus. The conditions noted are these: for inhibition at 100 µM: read-out: Inhibition rate (%) of MRSA; for MIC50 (50% minimum inhibitory concentration), anti-MRSA / MIC50: 24 h; for MIC50: read-out: MIC50 (50% minimum inhibitory concentration), anti-MRSA; for anti-MRSA activity (in words): abstract statement. The protocol:
Prepare samples with DMSO as a solvent into a solution with an initial concentration of 20 mM; Take a 96-well culture plate, dilute the sample to be measured, and add bacterial solution to each well, and the final concentration is 5 × 10^5 CFU/mL; Incubate at 37 °C for 24 h, and the microplate reader determines the OD value at 625 nm. The experiment also set up a media blank control, a bacterial control and a vancomycin-positive drug control.
MIC50 (50% minimum inhibitory concentration) is calculated according to the Reed & Muench method.

[3] abbreviates: Staphylococcus aureus, MRSA, concentration 100 μM, preliminary screen.
Where [4] appears, read: Staphylococcus aureus, MRSA, Reed & Muench method, 37 °C.

≈ marks a conversion by molar mass, not a printed value. Like-named read-outs stand apart in the source and are kept apart here.

Turning to `CC1=CC2c3c(cc(-c4cc5ccc(O)cc5o4)c(Cc4ccc(O)cc4)c3O)OC3(c4ccc(O)cc4O)Oc4cc(O)ccc4C(C1)C23` (stereo not drawn) [Compound 9, 8a-(2,4-dihydroxyphenyl)-6-(6-hydroxybenzofuran-2-yl)-5-(4-hydroxybenzyl)-2-methyl-1,3a1,8a,13b-tetrahydro-3aH-benzo [3, 4] isochromeno[1,8-bc] chromene-4,11-diol], in assay [1], the “acetylcholinesterase inhibitory activity (in words)” value is “good acetylcholinesterase inhibitory activity”, the inhibition at 50 µM was greater than 60% and the concentration for half-maximal inhibition (IC50) came to 0.488 ± 0.032 µM. Moreover, the inhibition at 100 µM in assay [2] (setting [3]) is 63.95 ± 0.124%.
For `COc1cc2ccc3c(c2c(O)c1Cc1ccc(O)cc1)C(=O)C(Cc1ccc(O)cc1)(Cc1ccc(O)cc1)C3=O` [Compound 3, 9-hydroxy-2,2,8-tris(4-hydroxybenzyl)-7-methoxy-1H-cyclopenta[a]naphthalene-1,3(2H)-dione], in assay [1], the inhibition at 50 µM is greater than 60% and the IC50 stood at 15.7 ± 1.57 µM. Besides, the inhibition at 100 µM in assay [2] (setting [3]) came out at 13.5 ± 2.48%.
For `Cc1ccc2c(c1)-c1cc(C3CC(=O)c4c(O)cc(O)cc4O3)c(O)cc1OC2(C)C` (stereo not drawn) [Compound 5, 5,7-dihydroxy-2-(3-hydroxy-6,6,9-trimethyl-6H-benzo[c]chromen-2-yl) chroman-4-one], in assay [2] (Reed & Muench method, 37 °C), the “MIC50 (50% minimum inhibitory concentration), anti-MRSA” value was 4.46 ± 0.02 µM (≈ 1.87 µg/mL) and the MIC50 came out at 4.46 µM (≈ 1.87 µg/mL). The MIC50 in assay [2] (setting [4]) was found to be 4.4 µM (≈ 1.84 µg/mL). Besides, in assay [2] (setting [3]), the inhibition at 100 µM is greater than 80%. For the same molecule, the “anti-MRSA activity (in words)” value in assay [2] is recorded as “good activity”.
`COc1c(Cc2ccc(O)cc2)c(O)c2c3c(ccc2c1Cc1ccc(O)cc1)C(O)CCC3=O` (stereo not drawn) [Compound 1, 1,5-dihydroxy-6,8-bis(4-hydroxybenzyl)-7-methoxy-2,3-dihydrophenanthren-4(1H)-one]: in assay [2] (setting [4]), the MIC50 came to 22.06 ± 0.026 µM (≈ 10.4 µg/mL). The inhibition at 100 µM in assay [2] (setting [3]) was greater than 80%.
Taken in the same sequence, the figures for `CC1(C)C=Cc2c(cc(O)c3c(=O)c(CC(O)C(C)(C)O)c(-c4ccc(O)cc4O)oc23)O1` (stereo not drawn) [Compound 6, 3-(2,3-dihydroxy-3-methylbutyl)-2-(2,4-dihydroxyphenyl)-5-hydroxy-8,8-dimethyl-4H,8H-pyrano[2,3-f] chromen-4-one] were 61.6 ± 1.56 µM (≈ 28 µg/mL) and greater than 80%.
As to `CC(C)=CCc1c(O)cc(O)c2c(=O)c3c(oc12)-c1ccc(O)cc1OC3C=C(C)C` (stereo not drawn) [Compound 11, cyclomulberrin], the “MIC50 (50% minimum inhibitory concentration), anti-MRSA” value in assay [2] (Reed & Muench method, 37 °C) was determined as 1.908 ± 0.014 µM (≈ 0.802 µg/mL). In assay [2] (setting [4]), the MIC50 stood at 1.91 µM (≈ 0.802 µg/mL). For the same molecule, the inhibition at 100 µM in assay [2] (setting [3]) was greater than 80%. In addition, the “anti-MRSA activity (in words)” value in assay [2] was “good activity”.
Consider `CN[C@H](CC(C)C)C(=O)N[C@H]1C(=O)N[C@@H](CC(N)=O)C(=O)N[C@H]2C(=O)N[C@H]3C(=O)N[C@H](C(=O)N[C@H](C(=O)O)c4cc(O)cc(O)c4-c4cc3ccc4O)[C@H](O)c3ccc(c(Cl)c3)Oc3cc2cc(c3O[C@@H]2O[C@H](CO)[C@@H](O)[C@H](O)[C@H]2O[C@H]2C[C@](C)(N)[C@H](O)[C@H](C)O2)Oc2ccc(cc2Cl)[C@H]1O` [Vancomycin, reference compound], for which, in assay [2] (Staphylococcus aureus, MRSA), the MIC50 turned out to be 0.433 ± 0.002 µM (≈ 0.628 µg/mL) and the inhibition at 100 µM came to 98.86 ± 0.495%.
In the case of `CC1=C[C@H]2c3c(O)cc(-c4cc5ccc(O)cc5o4)cc3O[C@@]3(c4ccc(O)cc4O)Oc4cc(O)ccc4[C@H](C1)[C@@H]23` [Compound 13, mulberrofuran G], in assay [1], the “acetylcholinesterase inhibitory activity (in words)” value is “good acetylcholinesterase inhibitory activity”, the inhibition at 50 µM was greater than 60% and the IC50 came to 1.06 ± 0.011 µM. For the same molecule, the “MIC50 (50% minimum inhibitory concentration), anti-MRSA” value in assay [2] (Reed & Muench method, 37 °C) amounted to 1.264 ± 0.005 µM (≈ 0.711 µg/mL). For the same molecule, in assay [2] (setting [4]), the MIC50 turned out to be 1.26 µM (≈ 0.711 µg/mL). The inhibition at 100 µM in assay [2] (setting [3]) was greater than 80%. The “anti-MRSA activity (in words)” value in assay [2] was “good activity”.
For `CC(C)=CCc1c(-c2ccc(O)cc2O)oc2c(CC=C(C)C)c(O)cc(O)c2c1=O` [Compound 12, kuwanon C], the “MIC50 (50% minimum inhibitory concentration), anti-MRSA” value in assay [2] (Reed & Muench method, 37 °C) is 1.911 ± 0.018 µM (≈ 0.807 µg/mL). Further, in assay [2] (setting [4]), the MIC50 amounted to 1.91 µM (≈ 0.807 µg/mL). In addition, the inhibition at 100 µM in assay [2] (setting [3]) was greater than 80%. The “anti-MRSA activity (in words)” value in assay [2] is recorded as “good activity”.
For the molecule `COc1cc(O)c2c3c(ccc2c1Cc1ccc(O)cc1)C(=O)C(Cc1ccc(O)cc1)(Cc1ccc(O)cc1)C3=O` [Compound 2, 9-hydroxy-2,2,6-tris(4-hydroxybenzyl)-7-methoxy-1H-cyclopenta[a]naphthalene-1,3(2H)-dione], in assay [1], the inhibition at 50 µM is greater than 60% and the half-maximal inhibitory concentration (IC50) is 24.7 ± 0.732 µM. In addition, the inhibition at 100 µM in assay [2] (setting [3]) amounted to 77.2 ± 1.61%.
